Source: paper PMC4526861, “Inhibition of protein kinase C by isojacareubin suppresses hepatocellular carcinoma metastasis and induces apoptosis in vitro and in vivo” (Scientific Reports, 2015)

Legend:
PKCζ = assay: Western blot of PKC isoform expression in cytosol and membrane; format: cell-based, human; conditions: HepG2, 24 h incubation
Experimental: To further determine whether compound 7 and ISJ represent potential candidates for selective PKC expression inhibitors against hepatoma, the expression of PKC isoforms in HepG2 cells was characterized by western blotting. After 24 h of incubation with GFX, GO, ISJ and compound 7 at the indicated concentrations, PKC proteins from the cytosol and membrane of HepG2 cells were evaluated. ISJ and compound 7 treatments reduced both the cytosol and cell membrane expression of PKCζ.
The total membrane and cytosolic proteins were extracted using a Membrane and Cytosol Protein Extraction Kit (Beyotime). Extracted proteins from cells or animal tissues were separated by SDS-PAGE and transferred to polyvinylidene difluoride (PVDF) membranes (Bio-Rad). The PVDF membranes were blocked with 5% nonfat milk and incubated with primary antibodies overnight, followed by incubation with a donkey anti-rabbit or anti-mouse secondary antibody (IRDye 800, LI-COR, Biosciences). The images were captured using the Odyssey Infrared Imaging System (LI-COR, Biosciences), according to the manufacturer's instructions. The intensity was quantitative with Quantity One software (Bio-Rad). To ensure equal protein loading, each membrane was stripped and reprobed with an anti-β-actin antibody. All experiments were repeated independently no less than three times.

c-PARP, p53 and p21 = assay: Western blot of apoptotic proteins, HepG2; format: cell-based, human; conditions: HepG2, 24 h
Experimental: (§1) Additional PKC targeting effects involved in the early response of major MAPK phosphorylation and the late response of HCC cell invasion and apoptosis were investigated. After 24 h of treatment with ISJ at the indicated concentrations, the total protein lysates from HCC cells were analyzed (Fig. 6). ISJ inhibited the phosphorylated, activated forms of c-Raf, MEK1/2 and ERK1/2 in the MAPK signaling pathway in both HepG2 and QGY-7703 cells (Fig. 6a). […] In contrast, E-cadherin expression was elevated, specifically at the highest concentration of ISJ (20 μM) (Fig. 6b). In addition, we analyzed several representative apoptotic proteins, including cleaved PARP (c-PARP), p53 and p21. […] These findings support our hypothesis that ISJ restrains HCC cell metastasis and induces HCC cell apoptosis by specifically inhibiting PKC.
(§2) The total membrane and cytosolic proteins were extracted using a Membrane and Cytosol Protein Extraction Kit (Beyotime). Extracted proteins from cells or animal tissues were separated by SDS-PAGE and transferred to polyvinylidene difluoride (PVDF) membranes (Bio-Rad). The PVDF membranes were blocked with 5% nonfat milk and incubated with primary antibodies overnight, followed by incubation with a donkey anti-rabbit or anti-mouse secondary antibody (IRDye 800, LI-COR, Biosciences). […] The intensity was quantitative with Quantity One software (Bio-Rad). […]

PKCδ = target: T1, PKCδ (Homo sapiens, UniProt Q05655); assay: Cell-based pull-down assay, PKCδ; format: binding; conditions: HepG2 lysates
T1 construct: Endogenous cPKC (PKCα) and nPKC (PKCδ, PKCε and PKCμ) in HepG2 lysates were pulled down; endogenous in cells; host or cells: HepG2
T1 sequence (Q05655 whole entry): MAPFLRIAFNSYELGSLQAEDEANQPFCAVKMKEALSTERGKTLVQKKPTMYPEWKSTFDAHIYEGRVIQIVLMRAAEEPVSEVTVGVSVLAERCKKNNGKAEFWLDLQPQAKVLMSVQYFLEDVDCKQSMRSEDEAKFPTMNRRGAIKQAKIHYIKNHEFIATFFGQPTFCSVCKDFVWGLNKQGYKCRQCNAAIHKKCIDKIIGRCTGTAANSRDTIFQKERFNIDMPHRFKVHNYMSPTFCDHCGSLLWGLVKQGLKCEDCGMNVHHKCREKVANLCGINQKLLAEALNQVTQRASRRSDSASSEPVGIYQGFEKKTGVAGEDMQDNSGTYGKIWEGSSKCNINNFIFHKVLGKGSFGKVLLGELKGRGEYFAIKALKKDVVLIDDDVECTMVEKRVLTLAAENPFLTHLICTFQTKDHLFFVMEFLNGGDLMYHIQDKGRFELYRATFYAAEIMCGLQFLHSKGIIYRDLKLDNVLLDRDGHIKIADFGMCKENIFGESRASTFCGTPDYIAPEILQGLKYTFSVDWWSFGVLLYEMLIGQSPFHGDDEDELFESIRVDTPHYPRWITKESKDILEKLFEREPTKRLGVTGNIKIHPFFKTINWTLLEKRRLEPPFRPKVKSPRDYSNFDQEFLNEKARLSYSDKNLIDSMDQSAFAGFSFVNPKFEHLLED
Experimental: (§3) To identify whether ISJ and compound 7 target PKC in cells, we performed pull-down experiments using ISJ- and compound 7-coupled Sepharose beads with HepG2 cell lysates. Endogenous cPKC (PKCα) and nPKC (PKCδ, PKCε and PKCμ) in HepG2 lysates were pulled down by ISJ-coupled CNBr-activated Sepharose 4B beads (Fig. 5a).
(§4) The control beads were prepared by incubating the beads with DMSO. Proteins (500 μg) from lysed HepG2 cells were mixed with either the control beads, compound 7-coupled beads, or ISJ-coupled beads (100 μL) in reaction buffer [50 mM Tris (pH 7.5), 5 mM EDTA, 150 mM NaCl, 1 mM DTT, 0.01% NP-40, 2 μg/mL BSA, 1 mM PMSF, 1% protease inhibitor mixture]. After incubation with gentle rocking overnight at 4 °C, the beads were washed 5 times with washing buffer [50 mM Tris (pH 7.5), 5 mM EDTA, 150 mM NaCl, 1 mM DTT, 0.01% NP-40, 1 mM PMSF], and binding was visualized by western blotting.

PKCε = target: T2, PKCε (Homo sapiens, UniProt Q02156); assay: Cell-based pull-down assay, PKCε; format: binding; conditions: HepG2 lysates
T2 construct: Endogenous cPKC (PKCα) and nPKC (PKCδ, PKCε and PKCμ) in HepG2 lysates were pulled down; endogenous in cells; host or cells: HepG2
T2 sequence (Q02156 1-737): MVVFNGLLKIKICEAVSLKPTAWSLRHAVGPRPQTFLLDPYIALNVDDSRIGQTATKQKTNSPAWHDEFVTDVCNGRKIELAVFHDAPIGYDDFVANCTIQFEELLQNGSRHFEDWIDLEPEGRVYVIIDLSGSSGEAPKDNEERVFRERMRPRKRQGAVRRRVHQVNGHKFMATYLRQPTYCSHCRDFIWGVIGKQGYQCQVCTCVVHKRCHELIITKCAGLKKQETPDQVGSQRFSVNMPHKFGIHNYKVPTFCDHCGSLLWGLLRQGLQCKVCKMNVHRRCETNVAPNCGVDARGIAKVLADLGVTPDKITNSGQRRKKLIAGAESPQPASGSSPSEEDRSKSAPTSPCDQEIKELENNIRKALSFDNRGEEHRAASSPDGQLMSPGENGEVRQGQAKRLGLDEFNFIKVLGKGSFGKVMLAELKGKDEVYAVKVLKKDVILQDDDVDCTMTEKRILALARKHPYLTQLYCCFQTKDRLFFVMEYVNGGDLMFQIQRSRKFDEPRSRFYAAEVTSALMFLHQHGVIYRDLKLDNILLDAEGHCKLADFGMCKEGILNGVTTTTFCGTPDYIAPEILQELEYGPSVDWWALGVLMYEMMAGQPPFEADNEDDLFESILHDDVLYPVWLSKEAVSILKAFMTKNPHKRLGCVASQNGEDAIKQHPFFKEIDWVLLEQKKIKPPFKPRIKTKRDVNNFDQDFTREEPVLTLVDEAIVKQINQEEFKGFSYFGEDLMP
Experimental: as §3, §4

PKC = PKC activity assay (PepTag non-radioactive, HepG2 lysates); format: biochemical, human; conditions: 3 h
Experimental: The activity of PKC in HepG2 cells was assessed 3 h after the addition of compound 7 or ISJ by measuring the phosphorylation of a PKC-specific target peptide. Compared to the basal control (in the absence of any compound), PKC activity was inhibited by compound 7 and ISJ.
Figure 3 Effects of compound 7 and ISJ on PKC activity in HepG2 cells. The proteins from lysed HepG2 cells were prepared and measured for their ability to phosphorylate a PKC-specific peptide substrate (PLSRTLSVAAK) in a non-radioactive assay. (a) Lanes 1 and 2 show the negative (water only) and positive controls (with 20 ng purified PKC). Supernatants from HepG2 cells were subjected to the PKC activity assay in the absence (basal control, lane 3) or presence (lanes 4–7) of the compounds. Compound 7 (lanes 4 and 5) and ISJ (lanes 6 and 7) were added separately at 10 and 5 μM. (b) Quantification of (a); *P < 0.05 versus the basal control. Data are shown as the mean ± SD of three independent experiments.
The PKC activity assay was carried out as previously reported, according to the instructions of the PepTag non-radioactive PKC assay kit (Promega)[60]. The bands were photographed using the Syngene GBOX-iCHEMI-XR system, and the phosphorylated bands were cut out for quantification measurement at 570 nm.

[1] = system: MMP-9, FGFR-1, E-cadherin; assay: Western blot of invasion-related proteins, HepG2; format: cell-based, human; conditions: HepG2, 24 h
Experimental: as §1, §2

## Isojacareubin [ISJ]
PKCζ
  PKCζ expression in cytosol and cell membrane: significantly decreased
c-PARP, p53 and p21
  expression levels of c-PARP, p53 and p21: increased
PKCδ
  pull-down of endogenous PKCδ by compound-coupled Sepharose 4B beads: pulled down
PKCε
  pull-down of endogenous PKCε by compound-coupled Sepharose 4B beads: pulled down
PKC; 5 μM
  inhibition of PKC activity compared to the basal control: 52.3%
PKC; 10 μM
  inhibition of PKC activity compared to the basal control: 77.7%
[1]
  expression levels of MMP-9 and FGFR-1: markedly reduced
[1]; specifically at 20 μM
  E-cadherin expression: elevated
